Data: US11572590B2, “Methods for evaluating tumor cell spheroids using 3D microfluidic cell culture device” (Dana-Farber Cancer Institute, Inc., priority 2017, dated 2023)
Read-outs that look alike come from different tables or passages of the source.

Experiments:
Experiment in all cases: SelectScreen Kinase Profiling, single point inhibition and IC50 for off-target kinases
Format in all cases: biochemical
off-target kinases [1] = target: T1, off-target kinases (Homo sapiens, UniProt Q15835); conditions: GRK1, LanthaScreen Binding
T1 sequence (Q15835 1-563): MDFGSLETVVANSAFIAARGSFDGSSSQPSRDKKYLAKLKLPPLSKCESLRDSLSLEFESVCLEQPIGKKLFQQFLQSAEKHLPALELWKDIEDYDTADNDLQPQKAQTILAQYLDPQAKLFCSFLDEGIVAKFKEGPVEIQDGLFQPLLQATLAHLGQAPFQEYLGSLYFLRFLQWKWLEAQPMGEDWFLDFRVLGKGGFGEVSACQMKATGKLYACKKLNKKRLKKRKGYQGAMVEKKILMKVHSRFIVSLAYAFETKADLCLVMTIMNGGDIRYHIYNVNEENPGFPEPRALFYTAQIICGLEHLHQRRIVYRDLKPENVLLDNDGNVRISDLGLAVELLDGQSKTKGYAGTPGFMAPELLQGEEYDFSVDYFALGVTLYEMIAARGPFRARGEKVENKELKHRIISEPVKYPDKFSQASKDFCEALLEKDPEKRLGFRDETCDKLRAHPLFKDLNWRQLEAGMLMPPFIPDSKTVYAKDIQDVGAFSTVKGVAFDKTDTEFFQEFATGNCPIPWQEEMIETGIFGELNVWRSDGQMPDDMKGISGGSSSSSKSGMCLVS

off-target kinases [2] = target: T2, off-target kinases (Homo sapiens, UniProt Q12866, A708S); conditions: MERTK (cMER) A708S, mutant y, LanthaScreen Binding
T2 sequence (Q12866 21-999 A708S): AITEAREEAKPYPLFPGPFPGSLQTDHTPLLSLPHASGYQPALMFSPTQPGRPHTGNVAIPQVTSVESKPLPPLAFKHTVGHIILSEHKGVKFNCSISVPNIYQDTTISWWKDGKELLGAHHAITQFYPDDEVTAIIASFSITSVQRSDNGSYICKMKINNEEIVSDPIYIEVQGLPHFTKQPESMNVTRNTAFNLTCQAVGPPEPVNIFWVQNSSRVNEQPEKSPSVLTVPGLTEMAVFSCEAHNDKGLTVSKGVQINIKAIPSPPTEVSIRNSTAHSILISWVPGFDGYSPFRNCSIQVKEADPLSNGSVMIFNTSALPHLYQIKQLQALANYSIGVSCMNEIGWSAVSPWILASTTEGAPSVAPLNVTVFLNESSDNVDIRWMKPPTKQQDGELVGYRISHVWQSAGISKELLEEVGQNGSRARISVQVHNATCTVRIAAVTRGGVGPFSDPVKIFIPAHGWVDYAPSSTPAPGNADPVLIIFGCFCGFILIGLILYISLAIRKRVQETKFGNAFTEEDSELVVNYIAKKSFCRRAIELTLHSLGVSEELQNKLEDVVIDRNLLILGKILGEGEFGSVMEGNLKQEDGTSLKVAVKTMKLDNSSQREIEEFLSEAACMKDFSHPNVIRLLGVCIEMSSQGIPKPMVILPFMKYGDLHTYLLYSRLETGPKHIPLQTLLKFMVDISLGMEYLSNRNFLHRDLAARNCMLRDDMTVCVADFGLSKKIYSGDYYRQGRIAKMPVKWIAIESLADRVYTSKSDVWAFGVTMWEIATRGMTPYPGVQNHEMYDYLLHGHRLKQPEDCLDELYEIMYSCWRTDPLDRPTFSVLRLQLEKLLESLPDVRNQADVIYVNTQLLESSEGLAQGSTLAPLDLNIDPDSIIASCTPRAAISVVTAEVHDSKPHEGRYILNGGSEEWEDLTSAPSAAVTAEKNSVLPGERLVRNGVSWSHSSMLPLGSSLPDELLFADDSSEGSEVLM

off-target kinases [3] = target: off-target kinases (Homo sapiens, UniProt O00506); conditions: STK25 (YSK1), ZLYTE, ATP Km app
Chain of off-target kinases (Homo sapiens, UniProt O00506) (O00506 whole entry): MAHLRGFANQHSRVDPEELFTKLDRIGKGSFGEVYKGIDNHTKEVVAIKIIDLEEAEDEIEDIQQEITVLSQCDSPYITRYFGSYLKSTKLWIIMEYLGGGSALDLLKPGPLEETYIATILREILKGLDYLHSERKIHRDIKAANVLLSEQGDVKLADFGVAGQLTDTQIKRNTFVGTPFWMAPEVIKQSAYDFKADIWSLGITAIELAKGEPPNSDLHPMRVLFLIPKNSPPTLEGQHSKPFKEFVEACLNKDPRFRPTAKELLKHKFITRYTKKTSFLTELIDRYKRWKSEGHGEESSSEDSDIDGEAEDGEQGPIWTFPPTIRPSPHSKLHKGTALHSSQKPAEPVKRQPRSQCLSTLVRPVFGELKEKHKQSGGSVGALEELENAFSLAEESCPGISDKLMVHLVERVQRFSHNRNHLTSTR

`N#Cc1cc(-c2ncnc(Nc3ccc(N4CCN(C5COC5)CC4)cc3)n2)ccc1OC1CCOCC1` [Compound 1, 5-(4-((4-(4-(oxetan-3-yl)piperazin-1-yl)phenyl)amino)-1,3,5-triazin-2-yl)-2-((tetrahydro-2H-pyran-4-yl)oxy)benzonitrile] gave an inhibition (off-target kinases [1]; read-out: % Inhibition 1) of 7%, an inhibition (off-target kinases [1]; read-out: % Inhibition 2) of 2% and an inhibition (off-target kinases [1]; read-out: % Inhibition Avg) of 5%. It also gave an inhibition (off-target kinases [2]; read-out: % Inhibition 1) of 24%, an inhibition (off-target kinases [2]; read-out: % Inhibition 2) of 27% and an inhibition (off-target kinases [2]; read-out: % Inhibition Avg) of 26%. The inhibition (off-target kinases [3]; read-out: % Inhibition 1) was 0%, the inhibition (off-target kinases [3]; read-out: % Inhibition 2) was -4% and the inhibition (off-target kinases [3]; read-out: % Inhibition Avg) was -2%.
